Assay results as given in patent publication US4760062A, “Pharmaceutical compositions of N-heterocyclic benzenesulfonamides and their use” (DROPIC, Societe Civile de gestion de droits de Propriete …, priority 1983, dated 1988).
Read-outs that look alike come from different tables or passages of the source.

What was measured:
[1] = system: mice; test: 4 plates test (suppressive conditioning), 25 mg/kg orally, increase in punished passages with respect to control; assay type: in vivo, Swiss male mice; conditions: Mus musculus, po, 1 h, male mice, 25 mg/kg single oral dose, 60 minutes before the test; read-out: % increase in the number of punished passages with respect to the control batch
Description: The method is based on the attenuation or suppression of the anxiety state induced by electric shocks on movement of the animals (mice) into a special enclosure.
The anxiolytic effect is manifested by an increase in movements at doses not affecting motility.
For each dose, the groups are of 15 animals which have not undergone the test.
The apparatus was of the Apelex type.
It is composed of a parallelepipedic box of white plastic material, provided with a lid of transparent plexiglas, mobile by means of two hinges. The floor, which is rectangular, is constituted by four plates of conductive metal of which the distance between one another and the walls of the box is of 0.5 cm.
These plates are connected to an Apelex impulse generator. The potential difference when there is no impulse is, nil between two plates on a diagonal and is of 180 Volts between two adjacent plates. A trigger enables that a constant electrical current pulse be sent (of 0 to 2 milliamperes) for a selected time (from 0.1 to 5 seconds).
The operation is carried out in a silent area at constant temperature, the experimenter overlooking the box so that he can follow all the movements of the mice placed on one of the plates.
For each animal, the experiment is carried out according to the following modalities:
preliminary exploration of 15 seconds, without electric shock;
punished exploration (electric shock for each movement between two ajdacent plates) for 60 seconds.
The electric shocks have a duration of 0.5 seconds and an intensity of 0.6 milliampere.
The controls receive only carboxymethylcellulose.
The results are expressed as percentage of increase in the number of punished passages with respect to the control batch (increase percentage).

[2] = Acute toxicity (LD0, LD50, LD100); conditions: mouse, in vivo
[3] = system: mice; test: Acute toxicity (LD0, LD50, LD100); conditions: for ratio between the effective dose and the toxicity: mouse, in vivo
[4] = system: mice; conditions: mouse, in vivo

## COc1cc(OC)c(S(=O)(=O)N2CCN(Cc3ccccc3)CC2)cc1S(C)(=O)=O [Compound 1213]
[1]
  change in vivo at 25 mg/kg: 13%

## COc1cc(OC)c(S(=O)(=O)N2CCNCC2)cc1OC [Compound 1243]
[2]; iv
  LD50: 200 mg/kg
[3]; mice, route IV
  LD0: 200 mg/kg
  LD100: 325 mg/kg
[4]
  ratio between the effective dose and the toxicity: satisfactory
[1]
  change in vivo at 25 mg/kg: 18%

## COc1ccc(Cl)cc1S(=O)(=O)N1CCN(Cc2ccccc2)CC1 [Compound 1245]
[2]; ip
  LD50: > 2000 mg/kg
[3]; mice, route IP
  LD0: > 2 000 mg/kg
  LD100: > 2 000 mg/kg
[4]
  ratio between the effective dose and the toxicity: satisfactory

## COc1cc(OC)c(S(=O)(=O)N2CCN(C)CC2)cc1OC [Compound 1260]
[1]
  change in vivo at 25 mg/kg: 31%

## COc1ccc(Cl)cc1S(=O)(=O)N1CCN(CCO)CC1 [Compound 1263]
[1]
  change in vivo at 25 mg/kg: 10%

## COc1cc([N+](=O)[O-])c(Cl)cc1S(=O)(=O)N1CCN(CCO)CC1 [Compound 1290]
[1]
  change in vivo at 25 mg/kg: 17%

## COc1cc([N+](=O)[O-])c(Cl)cc1S(=O)(=O)N1CCN(C)CC1 [Compound 1292]
[2]; ip
  LD50: 650 mg/kg
[3]; mice, route IP
  LD0: 400 mg/kg
  LD100: 1 000 mg/kg
[3]
  ratio between the effective dose and the toxicity: satisfactory

## COc1cc(OC)c(S(=O)(=O)N2CCN(CCO)CC2)cc1S(C)(=O)=O [Compound 1294]
[1]
  change in vivo at 25 mg/kg: 17%

## COc1cc(OC)c(S(=O)(=O)N2CCN(CC(O)CO)CC2)cc1Cl (centres unmarked) [Compound 1295]
[2]; ip
  LD50: 820 mg/kg
[3]; mice, route IP
  LD0: 600 mg/kg
  LD100: 1 000 mg/kg
[3]
  ratio between the effective dose and the toxicity: satisfactory

## COc1cc(OC)c(S(=O)(=O)N2CCN(c3ccc(F)cc3)CC2)cc1S(C)(=O)=O [Compound 1298]
[2]; ip
  LD50: > 2000 mg/kg
[3]; mice, route IP
  LD0: > 2 000 mg/kg
  LD100: > 2 000 mg/kg
[4]
  ratio between the effective dose and the toxicity: satisfactory

## COc1ccc(Br)cc1S(=O)(=O)N1CCN(c2ccc(F)cc2)CC1 [Compound 1299]
[1]
  change in vivo at 25 mg/kg: 28%

## O=C(c1ccccc1)N1CCCN(S(=O)(=O)c2ccc(Cl)c(C(F)(F)F)c2)CC1 [Compound 1393]
[3]; by oral route
  LD0: > 2 000 mg/kg
[4]
  ratio between the effective dose and the toxicity: satisfactory

## O=S(=O)(c1cc(C(F)(F)F)cc(C(F)(F)F)c1)N1CCNCC1 [Compound 1400]
[2]
  LD50: ~700 mg/kg
[3]; route not given
  LD0: ~250 mg/kg
[4]
  ratio between the effective dose and the toxicity: satisfactory

## O=C(c1ccco1)N1CCN(S(=O)(=O)c2ccc(Cl)c(C(F)(F)F)c2)CC1 [Compound 1402]
[3]; by oral route
  LD0: > 2 000 mg/kg
[4]
  ratio between the effective dose and the toxicity: satisfactory

## O=C(c1ccco1)N1CCN(S(=O)(=O)c2cc(C(F)(F)F)cc(C(F)(F)F)c2)CC1 [Compound 1403]
[1]
  change in vivo at 25 mg/kg: 22%

## O=C(c1ccco1)N1CCCN(S(=O)(=O)c2ccc(Cl)c(C(F)(F)F)c2)CC1 [Compound 1405]
[1]
  change in vivo at 25 mg/kg: 14%

## O=C(N1CCN(S(=O)(=O)c2ccc(Cl)c(C(F)(F)F)c2)CC1)C12CC3CC(CC(C3)C1)C2 [Compound 1406]
[1]
  change in vivo at 25 mg/kg: 24%

## O=S(=O)(c1cc(C(F)(F)F)cc(C(F)(F)F)c1)N1CCCNCC1 [Compound 1408]
[1]
  change in vivo at 25 mg/kg: 22%

## COc1cc(N)c(Cl)cc1S(=O)(=O)N1CCN(C)CC1 [Compound 1427, 1'1-[(4-amino 5-chloro 2-methoxy)benzenesulfonyl]4-methyl piperazine]
[2]
  LD50: ~800 mg/kg
[3]; route not given
  LD0: ~500 mg/kg
[4]
  ratio between the effective dose and the toxicity: satisfactory

## O=S(=O)(c1cc(C(F)(F)F)cc(C(F)(F)F)c1)N1CCCN(CC(O)CO)CC1 (centres unmarked) [Compound 1488, 4-(2.3-dihydroxypropyl)1-[(3,5-ditrifluoromethyl)benzenesulfonyl]homopiperazine]
[1]
  change in vivo at 25 mg/kg: 10%

## O=S(=O)(c1cccc(C(F)(F)F)c1)N1CCN(CCCO)CC1 [Compound 1500]
[1]
  change in vivo at 25 mg/kg: 25%

## O=C(c1ccccc1)N1CCN(S(=O)(=O)c2cccc(C(F)(F)F)c2)CC1 [Compound 1502]
[1]
  change in vivo at 25 mg/kg: 20%

## O=C(N1CCN(S(=O)(=O)c2cccc(C(F)(F)F)c2)CC1)C12CC3CC(CC(C3)C1)C2 [Compound 1503]
[1]
  change in vivo at 25 mg/kg: 28%

## O=S(=O)(c1cccc(C(F)(F)F)c1)N1CCNCC1 [Compound 1504]
[1]
  change in vivo at 25 mg/kg: 26%

## O=S(=O)(c1cccc(C(F)(F)F)c1)N1CCN(CCO)CC1 [Compound 1505]
[1]
  change in vivo at 25 mg/kg: 35%
